# Biological target: T1, mTOR (Homo sapiens, UniProt P42345)
# T1 construct: FLAG; made in house
# Assay: In Vitro mTOR Kinase Assay (Echo), Test (a)(ii)
# Assay type: biochemical
# Conditions: read-out: mTOR Kinase Assay (Echo)
# Summary of the method: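 FLAG-tagged truncated mTOR (residues 1362-2549), expressed in HEK293 and purified via the FLAG tag, phosphorylated a biotinylated peptide over 2 hours at room temperature. EDTA stopped the reaction. Phospho-T389 was detected overnight by AlphaScreen using the p70 S6K T389 antibody with Protein A/streptavidin beads; IC50 reported.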
# T1 sequence (P42345 1362-2549): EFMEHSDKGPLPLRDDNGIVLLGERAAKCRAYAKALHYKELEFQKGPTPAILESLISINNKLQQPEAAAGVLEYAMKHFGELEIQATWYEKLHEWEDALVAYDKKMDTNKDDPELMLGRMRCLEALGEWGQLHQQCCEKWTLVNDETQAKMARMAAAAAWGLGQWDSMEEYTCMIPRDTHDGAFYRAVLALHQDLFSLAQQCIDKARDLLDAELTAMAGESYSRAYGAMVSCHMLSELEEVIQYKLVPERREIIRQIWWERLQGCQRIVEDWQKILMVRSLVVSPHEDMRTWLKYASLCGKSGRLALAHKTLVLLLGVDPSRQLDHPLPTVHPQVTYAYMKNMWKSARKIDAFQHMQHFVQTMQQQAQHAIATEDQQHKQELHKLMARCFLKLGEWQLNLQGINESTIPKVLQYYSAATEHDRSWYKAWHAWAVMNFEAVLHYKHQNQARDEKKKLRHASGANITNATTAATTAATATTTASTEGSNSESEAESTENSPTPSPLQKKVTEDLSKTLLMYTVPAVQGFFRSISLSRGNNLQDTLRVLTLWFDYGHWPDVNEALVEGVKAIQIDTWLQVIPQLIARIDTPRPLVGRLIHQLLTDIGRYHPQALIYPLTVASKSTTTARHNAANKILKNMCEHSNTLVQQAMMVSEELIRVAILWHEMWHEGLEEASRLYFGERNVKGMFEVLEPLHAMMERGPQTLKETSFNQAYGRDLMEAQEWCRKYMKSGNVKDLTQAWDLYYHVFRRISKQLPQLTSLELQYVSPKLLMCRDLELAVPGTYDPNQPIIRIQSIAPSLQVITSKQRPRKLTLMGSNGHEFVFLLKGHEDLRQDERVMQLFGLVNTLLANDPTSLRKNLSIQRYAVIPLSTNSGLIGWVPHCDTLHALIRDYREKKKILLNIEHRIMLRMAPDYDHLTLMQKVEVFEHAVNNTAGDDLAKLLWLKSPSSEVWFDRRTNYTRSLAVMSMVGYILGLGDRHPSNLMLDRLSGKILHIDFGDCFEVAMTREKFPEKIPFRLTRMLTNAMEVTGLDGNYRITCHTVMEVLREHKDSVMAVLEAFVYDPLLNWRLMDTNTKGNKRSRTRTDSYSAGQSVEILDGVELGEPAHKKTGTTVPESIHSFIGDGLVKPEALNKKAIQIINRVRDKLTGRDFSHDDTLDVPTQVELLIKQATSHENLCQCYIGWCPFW
row,IC50 [nM],Compound
1,15.1,CC(C)NC(=O)Nc1ccc(-c2nc(N3CCOC[C@@H]3C)cc(C3(S(=O)(=O)C4CCCC4)CC3)n2)cc1 [Example 9d]
2,3.15,"CNC(=O)Nc1ccc(-c2nc(N3CCOC[C@@H]3C)cc(C3(S(=O)(=O)C(C)C)CC3)n2)cc1 [Example 7, 3-Methyl-1-[4-[4-[(3S)-3-methylmorpholin-4-yl]-6-(1-propan-2-ylsulfonylcyclopropyl)pyrimidin-2-yl]phenyl]urea]"
3,62.6,"C[C@H]1COCCN1c1cc(C2(S(C)(=O)=O)CCCC2)nc(-c2ccc(NC(=O)NCCN(C)C)cc2)n1 [Example 4g, 3-(2-dimethylaminoethyl)-1-[4-[4-[(3S)-3-methylmorpholin-4-yl]-6-(1-methylsulfonylcyclopentyl)pyrimidin-2-yl]phenyl]urea]"
4,12,"CC(C)NC(=O)Nc1ccc(-c2nc(N3CCOC[C@@H]3C)cc(C3(S(C)(=O)=O)CC3)n2)cc1 [Example 2j, 1-[4-[4-[(3S)-3-methylmorpholin-4-yl]-6-(1-methylsulfonylcyclopropyl)pyrimidin-2-yl]phenyl]-3-propan-2-yl-urea]"

# Same assay, conditions: table of enzyme assay Test (a)(ii); read-out: Test (a)(ii) IC50
row,Compound,IC50 [nM]
1,"3-(2,2-difluoroethyl)-1-[4-[4-[1-(2,4-difluorophenyl)sulfonylcyclopro-pyl]-6-[(3S)-3-methylmorpholin-4-yl]pyrimidin-2-yl]phenyl]urea [Example 57d]",10
2,"C[C@H]1COCCN1c1cc(C2(S(=O)(=O)CCCO)CC2)nc(-c2ccc(NC(=O)NC#N)cc2)n1 [Example 36co, 3-cyano-1-[4-[4-[1-(3-hydroxypropylsulfonyl)cyclopropyl]-6-[(3S)-3-methylmorpholin-4-yl]pyrimidin-2-yl]phenyl]urea]",1620
3,"C[C@H]1COCCN1c1cc(C2(S(C)(=O)=O)CCNCC2)nc(-c2ccc(NC(=O)NC3CC3)cc2)n1 [Example 20, 3-Cyclopropyl-1-[4-[4-[(3S)-3-methylmorpholin-4-yl]-6-(4-methylsulfonylpiperidin-4-yl)pyrimidin-2-yl]phenyl]urea]",12.8
4,"C[C@H]1COCCN1c1cc(C2(S(C)(=O)=O)CCOCC2)nc(-c2ccc(NC(=O)NCCO)cc2)n1 [Example 23c, 3-(2-hydroxyethyl)-1-[4-[4-[(3S)-3-methylmorpholin-4-yl]-6-(4-methylsulfonyloxan-4-yl)pyrimidin-2-yl]phenyl]urea]",0.831
5,"C[C@H]1COCCN1c1cc(C2(S(=O)(=O)c3ccc(F)cc3)CC2)nc(-c2cnc(NC(=O)NCCO)nc2)n1 [Example 14g, 1-[5-[4-[1-(4-fluorophenyl)sulfonylcyclopro-pyl]-6-[(3S)-3-methylmorpholin-4-yl]pyrimidin-2-yl]pyrimidin-2-yl]-3-(2-hydroxyethyl)urea]",85.7
6,"CNC(=O)Nc1ccc(-c2nc(N3CCOCC3)cc(C3(S(=O)(=O)c4ccccc4)CC3)n2)cc1 [Example 36df, 3-[4-[4-[1-(benzenesulfonyl)cyclopropyl]-6-morpholin-4-ylpyrimidin-2-yl]phenyl]-1-methylurea]",7.12

# The next lines start with the values.
row,IC50 [nM],Compound
1,10.6,"C[C@H]1COCCN1c1cc(C2(S(=O)(=O)c3ccccc3)CC2)nc(-c2ccc(NC(=O)NCC(=O)O)cc2)n1 [Example 36dp, 2-[[4-[4-[1-(benzenesulfonyl)cyclopropyl]-6-[(3S)-3-methylmorpholin-4-yl]pyrimidin-2-yl]phenyl]carbamoylamino]aceticacid]"
2,5.49,"C[C@H]1COCCN1c1cc(C2(S(=O)(=O)c3ccccc3)CC2)nc(-c2ccc(NC(=S)NC3CC3)cc2)n1 [Example 37v, 1-[4-[4-[1-(benzenesulfonyl)cyclopropyl]-6-[(3S)-3-methylmorpholin-4-yl]pyrimidin-2-yl]phenyl]-3-cyclopropylthiourea]"
3,1.09,"CNC(=O)Nc1ccc(-c2nc(N3CCOC[C@@H]3C)cc(C3(S(=O)(=O)c4ccc(C)cc4)CC3)n2)cc1 [Example 95l, 3-methyl-1-[4-[4-[(3S)-3-methylmorpholin-4-yl]-6-[1-(4-methylphenyl)sulfonylcyclopropyl]pyrimidin-2-yl]phenyl]urea]"
4,3.98,"C[C@@H](CO)NC(=O)Nc1ccc(-c2nc(N3CCOC[C@@H]3C)cc(C3(S(=O)(=O)c4ccccc4)CCC3)n2)cc1 [Example 64p, 1-[4-[4-[1-(benzenesulfonyl)cyclobutyl]-6-[(3S)-3-methylmorpholin-4-yl]pyrimidin-2-yl]phenyl]-3-[(2S)-1-hydroxypropan-2-yl]urea]"
5,18.9,"CCNC(=O)Nc1ccc(-c2nc(N3CCOCC3C(=O)N(C)C)cc(C3(S(=O)(=O)c4ccccc4)CC3)n2)cc1 (centres unmarked) [Example 90, 4-[6-[1-(Benzenesulfonyl)cyclopropyl]-2-[4-(ethylcarbamoylamino)phenyl]pyrimidin-4-yl]-N,N-dimethylmorpholine-3-carboxamide]"
6,0.818,"C[C@H]1COC[C@H](C)N1c1cc(C2(S(=O)(=O)c3ccccc3)CC2)nc(-c2ccc(NC(=O)NCC(F)F)cc2)n1 [Example 93d, 1-[4-[4-[1-(benzenesulfonyl)cyclopropyl]-6-[(3S,5S)-3,5-dimethylmorpholin-4-yl]pyrimidin-2-yl]phenyl]-3-(2,2-difluoroethyl)urea]"
7,7.19,"CCNC(=O)Nc1ccc(-c2nc(N3CCOC[C@@H]3C)cc(C3(S(=O)(=O)c4ccccc4Cl)CC3)n2)cc1 [Example 76b, 3-[4-[4-[1-(2-chlorophenyl)sulfonylcyclopropyl]-6-[(3S)-3-methylmorpholin-4-yl]pyrimidin-2-yl]phenyl]-1-ethylurea]"
8,16.1,"Cc1nn(C)cc1S(=O)(=O)C1(c2cc(N3CCOC[C@@H]3C)nc(-c3ccc(NC(=O)NCCO)cc3)n2)CC1 [Example 55b, 1-[4-[4-[1-(1,3-dimethylpyrazol-4-yl)sulfonylcyclopropyl]-6-[(3S)-3-methylmorpholin-4-yl]pyrimidin-2-yl]phenyl]-3-(2-hydroxyethyl)urea]"
9,4.83,"C[C@@H](CO)NC(=O)Nc1ccc(-c2nc(N3CCOC[C@@H]3C)cc(C3(S(=O)(=O)c4ccncc4)CCC3)n2)cc1 [Example 83a, 3-[(2S)-1-hydroxypropan-2-yl]-1-[4-[4-[(3S)-3-methylmorpholin-4-yl]-6-(1-pyridin-4-ylsulfonylcyclobutyl)pyrimidin-2-yl]phenyl]urea]"
10,59.4,"C[C@H]1COCCN1c1cc(C2(S(=O)(=O)CCCO)CCC2)nc(-c2ccc(NC(=S)NCCCO)cc2)n1 [Example 99i, 3-(3-hydroxypropyl)-1-[4-[4-[1-(3-hydroxypropylsulfonyl)cyclobutyl]-6-[(3S)-3-methylmorpholin-4-yl]pyrimidin-2-yl]phenyl]thiourea]"
11,9.22,"CCS(=O)(=O)C1(c2cc(N3CCOC[C@@H]3C)nc(-c3ccc(NC(=O)NCCC#N)cc3)n2)CC1 [Example 36u, 3-(2-cyanoethyl)-1-[4-[4-(1-ethylsulfonylcyclopropyl)-6-[(3S)-3-methylmorpholin-4-yl]pyrimidin-2-yl]phenyl]urea]"
12,27.2,"CCNC(=O)Nc1ccc(-c2nc(N3CCOC[C@@H]3C)cc(C3(S(=O)(=O)c4ccc(NCC)c(Cl)c4)CC3)n2)cc1 [Example 95k, 1-[4-[4-[1-(3-chloro-4-ethylamino-phenyl)sulfonylcyclopro-pyl]-6-[(3S)-3-methylmorpho-lin-4-yl]pyrimidin-2-yl]phenyl]-3-ethylurea]"
13,4.9,"C[C@H]1COCCN1c1cc(C2(S(=O)(=O)CCCO)CC2)nc(-c2ccc(NC(=S)NCCC#N)cc2)n1 [Example 37e, 3-(2-cyanoethyl)-1-[4-[4-[1-(3-hydroxypropylsulfonyl)cyclopro-pyl]-6-[(3S)-3-methylmorpholin-4-yl]pyrimidin-2-yl]phenyl]thiourea]"
